Data taken from PubChem BioAssay AID330 (DTP/NCI, 2004).
Several values for one entry are separate records, joined by “and”; a condition that tells them apart may be missing. Equal values may be shown once. Inconclusive results and toxic doses are left out.

Tested on: P388 leukemia ip, CD2F1 mice, survival T/C
Test: NCI In Vivo Anticancer Drug Screen. Data for tumor model P388 Leukemia (intraperitoneal) in CD2F1 (CDF1) mice
Settings: endpoint: median survival time, higher = longer survival
Outline: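 Mice carrying the transplanted tumor received test compound or vehicle. Survival was recorded in each group, and the value is the treated-group measurement divided by that of the vehicle-treated control group.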

[1] = dose: 25.0 mg/kg/injection, schedule: Q01DX005 (ip), vehicle: saline with Tween-80
[2] = dose: 50.0 mg/kg/injection, schedule: Q01DX005 (ip), vehicle: saline with Tween-80
[3] = dose: 50.0 mg/kg/injection, schedule: Q01DX009 (ip), vehicle: saline

With `c1ccc(OCC2CO2)c(OCC2CO2)c1` (stereo not given) the T/C (dose: 1.88 mg/kg/injection, schedule: Q01DX005 (ip), vehicle: saline with Tween-80) was 100 % of control, the T/C (dose: 3.75 mg/kg/injection, schedule: Q01DX005 (ip), vehicle: saline with Tween-80) was 100 % of control and the T/C (dose: 7.5 mg/kg/injection, schedule: Q01DX005 (ip), vehicle: saline with Tween-80) was 99 % of control. For the same molecule, the T/C (dose: 15.0 mg/kg/injection, schedule: Q01DX005 (ip), vehicle: saline with Tween-80) was 111 % of control and 114 % of control and 121 % of control, the T/C [1] was 104 % of control and the T/C [2] was 112 % of control. The T/C (dose: 240.0 mg/kg/injection, schedule: Q01DX005 (ip), vehicle: saline with Tween-80) was 156 % of control and 157 % of control and 201 % of control.
`CN(C)C1=CC(N(C)C)=NC12C(=N)N(C)C(=O)N(C)C2=O` (stereo not given) was tested, and the T/C (dose: 50.0 mg/kg/injection, schedule: Q01DX005 (ip), vehicle: water) was 104 % of control, the T/C (dose: 100.0 mg/kg/injection, schedule: Q01DX005 (ip), vehicle: water) was 104 % of control and the T/C (dose: 200.0 mg/kg/injection, schedule: Q01DX005 (ip), vehicle: water) was 108 % of control.
With `Clc1ccc(C2(c3ccncc3)OCCO2)cc1` the T/C (dose: 75.0 mg/kg/injection, schedule: Q01DX001 (ip), vehicle: saline) was 109 % of control, the T/C (dose: 150.0 mg/kg/injection, schedule: Q01DX001 (ip), vehicle: saline) was 104 % of control and the T/C (dose: 300.0 mg/kg/injection, schedule: Q01DX001 (ip), vehicle: saline) was 90 % of control.
In the case of `CC(=O)OCC1OC(n2cnc3c(Cl)nc(Cl)nc32)C(OC(C)=O)C1OC(C)=O` (stereo not given), the T/C (dose: 50.0 mg/kg/injection, schedule: Q01DX005 (ip), vehicle: Klucel (hydroxypropylcellulose) (HPC)) is reported as 102 % of control, the T/C (dose: 100.0 mg/kg/injection, schedule: Q01DX005 (ip), vehicle: Klucel (hydroxypropylcellulose) (HPC)) is reported as 102 % of control and the T/C (dose: 200.0 mg/kg/injection, schedule: Q01DX005 (ip), vehicle: Klucel (hydroxypropylcellulose) (HPC)) is reported as 115 % of control.
With `O=CN(c1ccccc1)c1ccccc1` the T/C (dose: 50.0 mg/kg/injection, schedule: Q01DX009 (ip), vehicle: other) was 95 % of control, the T/C (dose: 50.0 mg/kg/injection, schedule: Q04DX003 (ip), vehicle: saline with Tween-80) was 107 % of control and the T/C (dose: 100.0 mg/kg/injection, schedule: Q01DX009 (ip), vehicle: other) was 90 % of control. For the same molecule, the T/C (dose: 100.0 mg/kg/injection, schedule: Q04DX003 (ip), vehicle: other) was 91 % of control, the T/C (dose: 100.0 mg/kg/injection, schedule: Q04DX003 (ip), vehicle: saline with Tween-80) was 109 % of control and the T/C (dose: 200.0 mg/kg/injection, schedule: Q01DX009 (ip), vehicle: other) was 90 % of control. The T/C (dose: 200.0 mg/kg/injection, schedule: Q04DX003 (ip), vehicle: other) was 87 % of control, the T/C (dose: 200.0 mg/kg/injection, schedule: Q04DX003 (ip), vehicle: saline with Tween-80) was 110 % of control and the T/C (dose: 400.0 mg/kg/injection, schedule: Q01DX009 (ip), vehicle: other) was 100 % of control. For the same molecule, the T/C (dose: 400.0 mg/kg/injection, schedule: Q04DX003 (ip), vehicle: other) was 87 % of control, the T/C (dose: 400.0 mg/kg/injection, schedule: Q04DX003 (ip), vehicle: saline with Tween-80) was 110 % of control and the T/C (dose: 800.0 mg/kg/injection, schedule: Q04DX003 (ip), vehicle: saline with Tween-80) was 97 % of control.
`COc1ccc2cc3n(cc-2c1=O)CCc1cc2c(cc1-3)OCO2` was tested, and the T/C (dose: 100.0 mg/kg/injection, schedule: Q04DX003 (ip), vehicle: water) was 160 % of control.
With `NC(=S)N/N=C\c1nccc2c(N)cccc12` the T/C (dose: 3.13 mg/kg/injection, schedule: Q01DX009 (ip), vehicle: saline) was 161 % of control, the T/C (dose: 6.25 mg/kg/injection, schedule: Q01DX009 (ip), vehicle: saline with Tween-80) was 153 % of control and the T/C (dose: 6.25 mg/kg/injection, schedule: Q01DX009 (ip), vehicle: saline) was 161 % of control. The T/C (dose: 12.5 mg/kg/injection, schedule: Q01DX009 (ip), vehicle: saline with Tween-80) was 162 % of control, the T/C (dose: 12.5 mg/kg/injection, schedule: Q01DX009 (ip), vehicle: saline) was 150 % of control and 166 % of control and the T/C (dose: 18.8 mg/kg/injection, schedule: Q04DX003 (ip), vehicle: saline) was 155 % of control. For the same molecule, the T/C (dose: 25.0 mg/kg/injection, schedule: Q01DX009 (ip), vehicle: saline) was 167 % of control, the T/C (dose: 50.0 mg/kg/injection, schedule: Q01DX009 (ip), vehicle: saline with Tween-80) was 152 % of control and 155 % of control and the T/C [3] was 168 % of control and 181 % of control. For the same molecule, the T/C (dose: 75.0 mg/kg/injection, schedule: Q01DX009 (ip), vehicle: saline with Tween-80) was 150 % of control, the T/C (dose: 75.0 mg/kg/injection, schedule: Q04DX003 (ip), vehicle: saline) was 155 % of control and the T/C (dose: 150.0 mg/kg/injection, schedule: Q04DX003 (ip), vehicle: saline) was 172 % of control.
For `COc1ccc(C(CC(=O)O)CC(=O)N(CCCl)CCCl)cc1C` (stereo not given), the T/C (dose: 100.0 mg/kg/injection, schedule: Q04DX003 (ip), vehicle: saline) was 102 % of control, the T/C (dose: 200.0 mg/kg/injection, schedule: Q04DX003 (ip), vehicle: saline) was 100 % of control and the T/C (dose: 400.0 mg/kg/injection, schedule: Q04DX003 (ip), vehicle: saline) was 100 % of control.
For `NC(=S)N/N=C1/C(=O)N(C2CCCCCC2)C(=O)C1C(=O)NC1CCCCCC1` (stereo not given), the T/C (dose: 12.5 mg/kg/injection, schedule: Q01DX005 (ip), vehicle: saline with Tween-80) was 105 % of control, the T/C [1] was 99 % of control and the T/C [2] was 104 % of control and 90 % of control.
In the case of `CC1(C)N=C(N)N=C(N)N1c1cccc(CNC(=O)Nc2cccc(S(=O)(=O)F)c2)c1`, the T/C (dose: 44.0 mg/kg/injection, schedule: Q01DX009 (ip), vehicle: saline with Tween-80) is reported as 159 % of control, the T/C [3] is reported as 163 % of control and the T/C (dose: 67.0 mg/kg/injection, schedule: Q01DX009 (ip), vehicle: saline with Tween-80) is reported as 163 % of control. The T/C (dose: 100.0 mg/kg/injection, schedule: Q01DX009 (ip), vehicle: saline with Tween-80) was 168 % of control.
With `NC(=S)c1ccc(N=Cc2cccs2)cc1` the T/C (dose: 100.0 mg/kg/injection, schedule: Q01DX001 (ip), vehicle: Klucel (hydroxypropylcellulose) (HPC)) was 108 % of control, the T/C (dose: 200.0 mg/kg/injection, schedule: Q01DX001 (ip), vehicle: Klucel (hydroxypropylcellulose) (HPC)) was 105 % of control and the T/C (dose: 400.0 mg/kg/injection, schedule: Q01DX001 (ip), vehicle: Klucel (hydroxypropylcellulose) (HPC)) was 102 % of control.
`O=C(CO)C(OC1OC(CO)C(O)C(O)C1O)C(O)C(O)CO` (stereo not given) was tested, and the T/C (dose: 50.0 mg/kg/injection, schedule: Q01DX005 (ip), vehicle: saline) was 109 % of control, the T/C (dose: 100.0 mg/kg/injection, schedule: Q01DX005 (ip), vehicle: saline) was 97 % of control and the T/C (dose: 200.0 mg/kg/injection, schedule: Q01DX005 (ip), vehicle: saline) was 109 % of control.
For `CCC1CN2CCc3cc(OC)c(OC)cc3C2C(C2(O)C(=O)Nc3ccccc32)C1=O` (stereo not given), the T/C (dose: 50.0 mg/kg/injection, schedule: Q01DX009 (ip), vehicle: Klucel (hydroxypropylcellulose) (HPC)) was 99 % of control, the T/C (dose: 100.0 mg/kg/injection, schedule: Q01DX009 (ip), vehicle: Klucel (hydroxypropylcellulose) (HPC)) was 100 % of control and the T/C (dose: 200.0 mg/kg/injection, schedule: Q01DX009 (ip), vehicle: Klucel (hydroxypropylcellulose) (HPC)) was 100 % of control.
For `CCN(CC)Cc1c(OC)ccc2[nH]c3c4ccc(Cl)cc4ncc3c12`, the T/C [1] was 109 % of control, the T/C [2] was 101 % of control and the T/C (dose: 100.0 mg/kg/injection, schedule: Q01DX005 (ip), vehicle: saline with Tween-80) was 106 % of control. For the same molecule, the T/C (dose: 200.0 mg/kg/injection, schedule: Q01DX005 (ip), vehicle: saline with Tween-80) was 112 % of control.
With `CCCCCCCCCCCC[C@@H](O)[C@H]1CC[C@H]([C@H](O)CCCC[C@H](O)CCCCC[C@@H](O)CC2=C[C@H](C)OC2=O)O1` the T/C (dose: 0.75 mg/kg/injection, schedule: Q01DX009 (ip), vehicle: other) was 113 % of control and the T/C (dose: 1.5 mg/kg/injection, schedule: Q01DX009 (ip), vehicle: other) was 105 % of control.
In the case of `CCOC(=O)c1[nH]c2c(cc(C=O)c3ccccc32)c1C`, the T/C (dose: 100.0 mg/kg/injection, schedule: Q01DX001 (ip), vehicle: saline with Tween-80) is reported as 92 % of control, the T/C (dose: 200.0 mg/kg/injection, schedule: Q01DX001 (ip), vehicle: saline with Tween-80) is reported as 91 % of control and the T/C (dose: 400.0 mg/kg/injection, schedule: Q01DX001 (ip), vehicle: saline with Tween-80) is reported as 90 % of control.
For `Cc1[nH]nc2c(NC[c-]3[c-][c-][c-][c-]3)ncnc12.[Fe].[c-]1[c-][c-][cH-][c-]1`, the T/C (dose: 6.25 mg/kg/injection, schedule: Q01DX005 (ip), vehicle: Klucel (hydroxypropylcellulose) (HPC)) was 101 % of control, the T/C (dose: 12.5 mg/kg/injection, schedule: Q01DX005 (ip), vehicle: Klucel (hydroxypropylcellulose) (HPC)) was 100 % of control and the T/C (dose: 25.0 mg/kg/injection, schedule: Q01DX005 (ip), vehicle: Klucel (hydroxypropylcellulose) (HPC)) was 115 % of control and 86 % of control.
`CN(C)CCN(C)CCc1ccccn1` was tested, and the T/C (dose: 100.0 mg/kg/injection, schedule: Q01DX001 (ip), vehicle: saline) was 109 % of control, the T/C (dose: 200.0 mg/kg/injection, schedule: Q01DX001 (ip), vehicle: saline) was 102 % of control and the T/C (dose: 400.0 mg/kg/injection, schedule: Q01DX001 (ip), vehicle: saline) was 105 % of control.
